Measured values taken from patent publication US9216215B2, “Adjuvant system for vaccine adjuvant” (VAXFORM LLC, priority 2010, dated 2015).

Columns and labels:
[1] = Stability of CTL agonist linkage to aluminum oxyhydroxide on exposure to phosphate (FIG. 3A, 3B); assay type: physicochemical; settings: 50 mM phosphate pH 7.4 for 30 minutes, absence of antigen
Source text: It is important to maintain the stability of the CTL agonist linkage to the aluminum particle upon exposure to body fluid following administration. Components of interstitial fluid such as phosphate, citrate, and protein have the potential to remove the linkage of the CTL agonist with aluminum-containing adjuvants. The resulting soluble CTL agonist may adversely impact the immune response. FIG. 3A illustrates that MIP as well as mannan maintain approximately 100% linkage with aluminum oxyhydroxide when exposed to 50 mM phosphate pH 7.4 for 30 minutes in the absence of antigen.

[2] = Linkage of CTL receptor agonist to aluminum adjuvant (FIG. 2); assay type: physicochemical; settings: aluminum oxyhydroxide
Source text: However, monosaccharides can be modified by a chemical group including but not limited to fluoride, phosphate, sulfate, or carbonate group which permits a ligand exchange linkage of the molecule to the aluminum-containing adjuvant. Method for modifying saccharides by addition of fluoride, phosphate, sulfate, or carbonate groups is well known in the art (Cantos, et al. Biochem. J. (1993) 289: 155-160; Carbohydrate Chemistry, Royal Society of Chemistry, Ed. R D Guthrie (1968)). This is illustrated in FIG. 2 utilizing mannose as the CTL receptor agonist and aluminum oxyhydroxide. […] However, addition of a phosphate group at the 1 position of mannose (MIP) results in approximately 100% linkage of the CTL agonist to the aluminum adjuvant.
Another method to the increased avidity of the saccharide for the aluminum adjuvant particle is polymerization. For instance the avidity of the saccharide for the aluminum adjuvant particle may be increased by increasing the size of the saccharide by polymerization to produce a polysaccharide. The increase avidity for the aluminum adjuvant is due to the larger number of interactions of a polysaccharide as compared to a monosaccharide to allow for the stable linkage of the polysaccharide agonist to the aluminum adjuvant particle. […]

Compound | linkage with aluminum oxyhydroxide maintained [1] | linkage of the CTL agonist to the aluminum adjuvant [2]
O=P(O)(O)OC1O[C@H](CO)[C@@H](O)[C@H](O)[C@@H]1O (stereo partly shown) [MIP, Mannose-1-phosphate] | approximately 100% | approximately 100%
mannan | approximately 100% | approximately 100%
